Assay results taken from US8193430B2, “Methods for separating carbon nanotubes” (The University of Connecticut, priority 2008, dated 2012).
Values after ≈ are worked out from the molar mass of the structure shown. Like-named read-outs stand apart in the source and are kept apart here.

What was measured:
[1] = Solubility of lumiflavin and FC12 in various solvents; type: physicochemical; settings: organic solvent or mixture
Description: The facile nanotube individualization and high QYs afforded by FC12 in certain solvents, begs the question why these solvents behave so differently. The answer to this question is believed to originate from the relative solubility differences of the two FC12 sub-moieties (i.e., isoalloxazine ring and dodecyl side chain). For this, we procured 10-methyl isoalloxazine (lumiflavin), the closest analogue to the isoalloxazine ring, and investigated its solubility characteristics versus that of FC12. Table 1 tabulates the solubilities of lumiflavin and FC12 as a function of dielectric constant (∈) of various solvents. […] As solvent polarity increases (i.e., ethylacetate, THF and acetone), their solubilities increase accordingly. […] Such behavior is believed to originate from the moderate-strong H-bonding ability of pyridine and DMF, capable of dissociating the H-bonded FC12 ribbon responsible for nanotube-dispersion. […] Two distinct regimes can be discerned, with high and low QYs for low and medium polarity solvents, respectively. For both regimes, the increase in FC12 solubility was followed by a decrease in QY. Since H-bonding is responsible for both helix stability and FC12/lumiflavine dissolution, increasing solvent polarity is expected to increase the helix dissociation constant and render FC12-wrapped nanotubes more prone to bundling and less capable to desorb 1,4-endoperoxide defects. On the basis of the observed aggregation tendencies, the low QYs in regime B appear to be dominated by nanotube bundling. In low-polarity solvents, the tight helical wrapping prevents nanotube bundling, which results in higher QY. Moreover, the proportionality of the helix dissociation constant to the FC12 solubility, explains the linear dependence of 1,4-endoperoxide defect removal along the one dimensional SWNT structure.

[2] = Solubility of riboflavin in neutral aqueous media (SWNT dispersion); type: physicochemical
Procedure: A representative procedure for dispersing SWNTs with flavin mononucleotide (FMN), FAD and riboflavin involves a 4 hours cup horn sonication of SWNTs in H2O or D2O. This is followed by 2 hours of centrifugation at 15 kg, where the upper 70 to 80% of the supernatant was decanted for further investigation. As noted above, the FIG. 1 illustrates the chemical structure of riboflavin, FMN, and FAD used for such aqueous dispersion of SWNTs. While the basic flavin moiety is hydrophobic, these flavin derivatives have water-miscible tail groups. Such amphiphilic structures together with the aforementioned strong π-π interactions with both metallic and semiconducting SWNTs, can explain the effective nanotube dispersion in aqueous media.
FIG. 6 illustrates the UV-Vis-NIR spectra of HiPco dispersions with FMN, FAD, and riboflavin. The first (E11^S) and second (E22^S) optical transitions of semiconducting SWNTs can be witnessed in […] range, respectively. Those E11^S and E22^S features are clearly apparent for the FMN and FAD spectra, which are in good accordance with that of SDBS-dispersed HiPco SWNTs. […] Upon sonication of riboflavin-SWNT in basic media (pH 11), the resulting dispersions recover the aforementioned E11^S and E22^S features (data not shown), which indicates the successful dispersion of SWNTs. […]

CCCCCCCCCCCCn1c2nc(=O)[nH]c(=O)c-2nc2cc(C)c(C)cc21 [FC12, 10-dodecyl-7,8-dimethyl-10H-benzo[g]pteridine-2,4-dione]
solubility ([1]; DMF (N,N-dimethyl formamide), in DMF, read-out: FC12 solubility): 22900 µg/mL (≈ 55700 µM) | solubility ([1]; THF (tetrahydrofuran), in THF, read-out: FC12 solubility): 11000 µg/mL (≈ 26900 µM) | solubility ([1]; in acetone, read-out: FC12 solubility): 1810 µg/mL (≈ 4410 µM) | solubility ([1]; in benzene, read-out: FC12 solubility): 310 µg/mL (≈ 755 µM) | solubility ([1]; in ethylacetate, read-out: FC12 solubility): 510 µg/mL (≈ 1240 µM) | solubility ([1]; in o-xylene, read-out: FC12 solubility): 250 µg/mL (≈ 609 µM) | solubility ([1]; in pyridine, read-out: FC12 solubility): 70400 µg/mL (≈ 171000 µM) | solubility ([1]; in toluene, read-out: FC12 solubility): 230 µg/mL (≈ 560 µM)

Cc1cc2nc3c(=O)[nH]c(=O)nc-3n(C)c2cc1C [Lumiflavin]
solubility ([1]; DMF (N,N-dimethyl formamide), in DMF, read-out: Lumiflavin solubility): 317 µg/mL (≈ 1240 µM) | solubility ([1]; THF (tetrahydrofuran), in THF, read-out: Lumiflavin solubility): 46.2 µg/mL (≈ 180 µM) | solubility ([1]; in acetone, read-out: Lumiflavin solubility): 53.9 µg/mL (≈ 210 µM) | solubility ([1]; in benzene, read-out: Lumiflavin solubility): 4.4 µg/mL (≈ 17.2 µM) | solubility ([1]; in ethylacetate, read-out: Lumiflavin solubility): 14.1 µg/mL (≈ 55 µM) | solubility ([1]; in o-xylene, read-out: Lumiflavin solubility): 5.9 µg/mL (≈ 23 µM) | solubility ([1]; in pyridine, read-out: Lumiflavin solubility): 529 µg/mL (≈ 2060 µM) | solubility ([1]; in toluene, read-out: Lumiflavin solubility): 4.3 µg/mL (≈ 16.8 µM)

Cc1cc2nc3c(=O)[nH]c(=O)nc-3n(C[C@H](O)[C@H](O)[C@H](O)CO)c2cc1C [riboflavin]
solubility in neutral aqueous media [2]: insolubility
